One series can be described thus: in vivo. Conditions: male, C57BL/6J, mouse, po, 5 mg/kg. As for the experimental part: Male C57BL/6J mouse was use in the in vivo distribution assay. The sample of brain, spinal cord and serum were collected for the drug distribution calculation.
Before commencing the study, the mice were acclimated to the test facility for at least 3 days. During this period, their general health was assessed by veterinary staff or other authorized personnel. The mice were housed in groups of up to four per cage in polysulfone cages, using either certified aspen shaving bedding or corncob bedding. This bedding was regularly tested for environmental contaminants by the manufacturer. The facility's environment was carefully controlled to maintain a temperature range of 20-26° C., relative humidity between 40 to 70%, and a 12-hour light/12-hour dark cycle, although this cycle can be interrupted for study-related activities. Temperature and humidity were continuously monitored by the Vawasala ViewLinc Monitoring system.
For dosing, an appropriate amount of the compounds was accurately weighed and mixed with a suitable volume of vehicle to achieve a clear solution. This process may require vertexing or sonication in a water bath. The animals were dosed within four hours of formulation preparation. Samples from each formulation were then collected for dose validation using either LC/UV or LC-MS/MS analysis.
Oral gavage was employed for dosing following the facility's SOPs, with the dose volume based on the animal's body weight measured on the morning of the dosing day.
Blood collections were performed from the saphenous vein or another suitable site, with approximately 0.1 mL collected per time point into pre-chilled commercial EDTA-K2 tubes. The samples were kept on wet ice until centrifugation at 4° C. and 3,200 g for 10 minutes. The plasma was then transferred into pre-labeled 96-well plates or polypropylene tubes, quick-frozen over dry ice, and stored at −60° C. or lower until LC-MS/MS analysis. […]
We calculated AUC ratio from the equation AUC ratio=Tissue AUC0-last/plasma AUC0-last. […]

The next series deals with plasma proteins. The series is described as follows: in vitro. The settings on record: male, C57BL/6J, mouse, pH 7.4. On the procedure:
(§1) The experiment utilized a HT-Dialysis plate (HTD 96 b) and a dialysis membrane with a molecular weight cutoff of 12-14 kDa. The plasma was derived from male C57BL/6J mice, treated with EDTA-K2 as an anticoagulant. The experimental procedure commenced with plasma thawing under cold tap water, followed by centrifugation at 3220×g for 5 minutes to eliminate clots, and pH adjustment to 7.4+0.1.
(§2) Dialysis membranes were initially hydrated in ultra-pure water for about one hour and then treated in a 20:80 ethanol-water mixture for 20 minutes. These prepared membranes could be used immediately or stored at 2-8° C. for up to a month. Membranes were rinsed in ultra-pure water before use.
(§3) Test and control compounds were prepared at a 400 µM concentration by diluting stock solutions with DMSO. Working solutions were further diluted to create 2 μM loading matrix solutions, which were thoroughly mixed. In the assay, 50 μL aliquots of these solutions were dispensed in triplicate into a Sample Collection Plate, balanced with blank PBS to a final volume of 100 µL per well. A stop solution containing acetonitrile, tolbutamide, and labetalol was added, and samples were mixed and cooled at 2 to 8° C.
(§4) During the dialysis, 100 μL aliquots from the loading matrix were placed in the dialysis well's donor side, matched with an equal volume of PBS on the receiver side, and incubated at 37° C. for 4 hours. Post-dialysis, samples from both sides were collected, balanced to 100 μL with corresponding blank fluids, treated with stop solution, vortexed, and centrifuged to prepare for LC-MS/MS analysis.
(§5) Data analysis involved calculating the percentages of Unbound, Bound, and Recovery of the compounds post-dialysis. % Unbound was calculated as the ratio of the compound's peak area on the receiver side to its internal standard, reflecting the fraction that crossed the membrane. % Bound was the complement of % Unbound, representing the fraction retained on the donor side. % Recovery was determined from the peak area ratios on both sides of the membrane, assessing the dialysis efficiency in retaining the compound. These metrics provided insights into the compound's free, bound, and recoverable quantities, elucidating its behavior in the dialysis system.

Another series is described as follows: in vitro. Conditions: male, C57BL/6J, mouse, plasma, pH 7.4. As for the experimental part:
as §1, §2, §3, §4, §5

The next series concerns brain proteins. The experiment in a line: in vitro. The settings on record: for % Undiluted Unbound (n = 3): brain homogenate, 4 h, 2 μM. On the procedure:
The initial preparation of the dialysis membrane involved thawing brain homogenate in a water bath at room temperature and subsequently heating it at 37° C. for 10 minutes. The dialysis setup utilized was from HT Dialysis LLC, featuring a HT-Dialysis plate (Model HTD 96 b) and a dialysis membrane with a molecular weight cutoff of 12-14 kDa.
The membrane underwent a comprehensive pretreatment which included hydration in ultra-pure water at room temperature for approximately one hour. This was followed by separation and immersion in a 20:80 ethanol:water solution for about 20 minutes. After this treatment, the membranes were either used immediately or stored at 2-8° C. for up to one month, with a final rinse in ultra-pure water prior to experimental use.
For compound preparation, test and control substances were first dissolved to create 400 μM working solutions by mixing 4 μL of stock solution with 96 μL of DMSO. These working solutions were then further diluted to 2 μM in a blank matrix by combining 3 μL of the prepared solution with 597 μL of matrix, ensuring thorough mixing.
During the assay, 50 μL aliquots of the 2 μM compound-matrix mixture were dispensed in triplicate into a Sample Collection Plate. Each aliquot was paired with an equal volume of blank PBS to standardize the total volume to 100 μL per well at a 1:1 matrix to PBS ratio. A stop solution comprising 500 μL of acetonitrile with tolbutamide and labetalol at 250 nM each was added to stabilize the samples at TO. The samples were then shaken at 800 rpm for 10 minutes and stored at 2-8° C.
The dialysis procedure included assembling the dialysis device according to the manufacturer's specifications, loading the matrix aliquots into the donor side of the dialysis wells, and conducting the dialysis under a humidified atmosphere with 5% CO2 at 37° C. for 4 hours.
Post-dialysis, 50 μL samples were collected from both the receiver and donor sides into new 96-well plates. Volumes were adjusted to 100 μL by adding an equivalent amount of the opposite blank matrix or PBS. The samples were prepared for LC-MS/MS analysis after thorough vertexing and centrifugation. Blank control samples were prepared and processed similarly to mirror the test conditions.
Data analysis involved calculating the percentages of undiluted unbound and bound fractions, and recovery of the compounds.

Another series deals with MC38 tumor. On the procedure:
The cells in exponential growth phase were harvested and quantitated by cell counter before tumor inoculation. […] The date of randomization was denoted as day 0.
After tumor cells inoculation, the animals were checked daily for morbidity and mortality. […] Mortality and observed clinical signs were recorded for individual animals in detail. […] Dosing as well as tumor and body weight measurements were conducted in a Laminar Flow Cabinet. The body weights and tumor volumes were measured by using StudyDirector™ software (version 3.1.399.19).

For series [1] the following is noted: mouse, in vivo, po, 1 mg/kg.
Procedure: Initially, mice were acclimatized to the testing environment for 8 hours the day before the experiment, followed by at least 2 hours of habituation on the day of the test. The mice were then grouped randomly based on their body weight into six per group, ensuring a balanced distribution for the administration of the drug, which was dissolved in 20% HP-β-CD in water.
The locomotor activity was monitored by placing the mice in the center of a test box, with a video tracking system measuring the distance traveled every 5 minutes for 60 minutes. The testing began at T=0 minutes, immediately after administering the vehicle or compounds, and concluded at T=60 minutes. For data analysis, Prism 8.3.0 software was utilized, employing Two-way ANOVA followed by Bonferroni's multiple comparison test to analyze distance variations across different time points and One-way ANOVA followed by Dunnett's multiple comparisons test for assessing the total distance covered by the groups. A significance level of p<0.05 was established for determining significant differences.
The target of the next series is P-glycoprotein (P-gp) (Homo sapiens, UniProt P08183). The experiment in a line: in vitro. The settings on record: MDCK-MDR1. On the procedure:
MDR1-MDCK II cells (obtained from Piet Borst at the Netherlands Cancer Institute) were seeded onto Polycarbonate membranes (PC) in 96-well insert systems at 3.33×10^5 cells/mL until to 4-7 days for confluent cell monolayer formation.
Selected α2AR agonist from table 3s were diluted with the transport buffer (HBSS with 10.0 mM Hepes, pH7.4) from DMSO stock solution to a concentration of 2 μM (DMSO<1%) and applied to the apical or basolateral side of the cell monolayer. […] Permeation of the test compounds from A to B direction and/or B to A direction was determined in duplicate. Digoxin was tested at 10.0 μM from A to B direction and B to A direction in duplicate. The plate was incubated for 2.5 hours in CO2 incubator at 37.0±1.0° C., with 5.0% CO2 at saturated humidity without shaking. In addition, the efflux ratio of each compound was also determined. Test and reference compounds were quantified by LC/MS/MS analysis based on the peak area ratio of analyte/IS.
After transport assay, lucifer yellow rejection assay was applied to determine the cell monolayer integrity. Buffers were removed from both apical and basolateral chambers, followed by the addition of 75 μL of 100 μM lucifer yellow in transport buffer and 250 μL transport buffer in apical and basolateral chambers, respectively. The plate was incubated for 30 minutes at 37.0° C. with 5.0% CO2 and 95.0% relative humidity without shaking. After 30 minutes incubation, 20 μL of lucifer yellow samples were taken from the apical sides, followed by the addition of 60 μL of transport Buffer. And then 80 μL of lucifer yellow samples were taken from the basolateral sides. The relative fluorescence unit (RFU) of lucifer yellow was measured at 425/528 nm (excitation/emission) with an Envision plate reader.
The apparent permeability coefficient Papp (cm/s) was calculated using the equation: […]
wherein dCr/dt is the cumulative concentration of compound in the receiver chamber as a function of time (μM/s); Vr is the solution volume in the receiver chamber (0.075 mL on the apical side, 0.25 mL on the basolateral side); A is the surface area for the transport, i.e. 0.143 cm2 for the area of the monolayer; and C0 is the initial concentration in the donor chamber (μM).
The efflux ratio was calculated using the equation: […]

Setting [2] is: D17, G2: 5 mg/kg p.o. QD Day 0~Day 3, then 2 mg/kg QD Day 4~Day 17.

The source of these data is patent publication US20240374573A1, “IMIDAZOLE CONTAINING COMPOUNDS, DERIVATIVES THEREFORE, AND USES THEREOF” (AglaeaPharma Inc., priority 2023, published 2024).

The structures appear in SMILES notation. Where a name gives a salt, the structure may show the parent alone.

Chain of P-glycoprotein (P-gp) (P08183 whole entry): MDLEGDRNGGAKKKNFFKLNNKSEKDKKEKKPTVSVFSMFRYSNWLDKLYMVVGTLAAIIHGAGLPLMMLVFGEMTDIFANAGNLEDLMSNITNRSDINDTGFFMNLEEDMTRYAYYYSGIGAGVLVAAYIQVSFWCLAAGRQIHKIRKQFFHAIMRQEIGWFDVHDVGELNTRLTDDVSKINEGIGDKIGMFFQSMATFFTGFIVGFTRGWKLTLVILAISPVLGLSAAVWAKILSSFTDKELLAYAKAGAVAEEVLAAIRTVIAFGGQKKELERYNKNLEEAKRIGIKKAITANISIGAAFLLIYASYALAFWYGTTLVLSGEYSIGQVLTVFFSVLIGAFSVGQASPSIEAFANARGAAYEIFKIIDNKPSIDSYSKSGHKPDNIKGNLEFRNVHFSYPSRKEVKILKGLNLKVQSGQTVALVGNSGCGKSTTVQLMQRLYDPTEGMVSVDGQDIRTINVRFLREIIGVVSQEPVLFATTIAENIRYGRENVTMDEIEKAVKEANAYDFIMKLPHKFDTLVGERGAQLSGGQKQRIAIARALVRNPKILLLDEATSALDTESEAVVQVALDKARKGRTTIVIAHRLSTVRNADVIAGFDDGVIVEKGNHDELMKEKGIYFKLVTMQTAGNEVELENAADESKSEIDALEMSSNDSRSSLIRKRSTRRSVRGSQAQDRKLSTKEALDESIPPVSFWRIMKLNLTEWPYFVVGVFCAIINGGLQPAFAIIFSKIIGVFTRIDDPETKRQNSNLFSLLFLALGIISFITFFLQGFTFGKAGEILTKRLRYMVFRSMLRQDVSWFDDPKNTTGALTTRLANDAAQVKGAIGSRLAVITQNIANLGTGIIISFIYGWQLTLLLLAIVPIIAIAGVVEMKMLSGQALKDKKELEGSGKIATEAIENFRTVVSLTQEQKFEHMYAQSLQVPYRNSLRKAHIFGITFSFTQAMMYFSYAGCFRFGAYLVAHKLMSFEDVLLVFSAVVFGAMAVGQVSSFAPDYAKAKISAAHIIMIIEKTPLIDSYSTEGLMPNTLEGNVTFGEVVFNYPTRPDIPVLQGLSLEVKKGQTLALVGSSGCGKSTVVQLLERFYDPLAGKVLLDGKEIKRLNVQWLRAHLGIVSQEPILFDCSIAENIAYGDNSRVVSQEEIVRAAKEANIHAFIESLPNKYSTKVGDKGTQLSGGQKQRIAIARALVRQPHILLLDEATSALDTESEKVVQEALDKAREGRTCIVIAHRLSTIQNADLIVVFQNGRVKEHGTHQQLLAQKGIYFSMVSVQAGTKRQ

Regarding `Clc1cccc(Cl)c1N=C1NCCN1` [Clonidine HCl, clonidine HCl], in the series “in vivo”, the Kp came to 2.27 and the Kp uu is 0.739. This compound returned a recovery at 4 h, 2 μM in the series with plasma proteins of 93.2%. In “in vitro”, this compound came in with a fraction unbound at 4 h, 2 μM of 0.708. In the series on brain proteins, the recovery at 4 h, 2 μM was 105% and the “% Undiluted Unbound (n = 3)” value is listed as 23.0%.

Regarding `Clc1cccc(Cl)c1N=C1NCCN1` [Clonidine, clonidine], in the series on MC38 tumor (setting [2]), the “T/C (%)” value is on record as 27.38%, the “TGI (%)” value is given as 72.62% and the “Tumor volume (mm^3) (mean ± SEM)” value is 766.52 ± 147.17 mm^3. Besides, the “state of mice at high dose” value with MC38 tumor (G2 group, 5 mg/mL, Day 0-3, p.o.) is recorded as “poor state of mice”. The “sedation (total distance travelled 0-60 min)” value in series [1] is “significant sedation”.

Consider `Cc1cccc([C@H](C)c2cnc[nH]2)c1C` [Dexmedetomidine HCl, dexmedetomidine HCl], for which the Kp in “in vivo” worked out at 1.26. The compound further yielded a recovery at 4 h, 2 μM in the series on plasma proteins of 88.9%. In addition, in the series “in vitro”, the fraction unbound at 4 h, 2 μM was 0.068. Besides, in the series with brain proteins, the recovery at 4 h, 2 μM is 93.8% and the “% Undiluted Unbound (n = 3)” value turned out to be 6.3%.

Take `Oc1ccc2c(c1)C(Cc1c[nH]cn1)CC2` (centres unmarked) [Fadolmidine, reference compound]: the Efflux ratio on P-glycoprotein (P-gp) is 0.80.
